Assay results from PubChem BioAssay AID1845204 (Molecular Pharmacology Branch, DTP, NCI, 2023).
pIC50: −log10 of the molar value.

Test system: HSSY-II tumor spheroid viability
Experiment: Anticancer human tumor HSSY-II cell line growth inhibition;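 also: spheroids exposed to compounds for seven days before reading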;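 as to viability, T/C: percent of DMSO vehicle control viability so 100% = untreated level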
Conditions: spheroids with HUVEC and MSC; for pIC50: curve of first compound; for viability, T/C: stronger effect = lower value
Procedure, shortened: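 Single agents and combinations were tested on spheroids built from tumor cells plus HUVEC and hMSC, at half-log dilutions starting at or near clinical Cmax, else 10 microM; final DMSO 0.25% (v/v).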

[1] = second compound 0.003 µM, first compound 0.0316 µM
[2] = second compound 0.003 µM, first compound 0.1 µM
[3] = second compound 0.003 µM, first compound 0.316 µM
[4] = second compound 0.003 µM, first compound 1 µM
[5] = second compound 0.003 µM, first compound 3.16 µM
[6] = second compound 0.003 µM, first compound 10 µM
[7] = second compound 0.00949 µM, first compound 0.0316 µM
[8] = second compound 0.00949 µM, first compound 0.1 µM
[9] = second compound 0.00949 µM, first compound 0.316 µM
[10] = second compound 0.00949 µM, first compound 1 µM
[11] = second compound 0.00949 µM, first compound 3.16 µM
[12] = second compound 0.00949 µM, first compound 10 µM
[13] = second compound 0.03 µM, first compound 0.0316 µM
[14] = second compound 0.03 µM, first compound 0.1 µM
[15] = second compound 0.03 µM, first compound 0.316 µM
[16] = second compound 0.03 µM, first compound 1 µM
[17] = second compound 0.03 µM, first compound 3.16 µM
[18] = second compound 0.03 µM, first compound 10 µM
[19] = second compound 0.0949 µM, first compound 0.0316 µM
[20] = second compound 0.0949 µM, first compound 0.1 µM
[21] = second compound 0.0949 µM, first compound 0.316 µM
[22] = second compound 0.0949 µM, first compound 1 µM
[23] = second compound 0.0949 µM, first compound 3.16 µM
[24] = second compound 0.0949 µM, first compound 10 µM
[25] = second compound 0.3 µM, first compound 0.0316 µM
[26] = second compound 0.3 µM, first compound 0.1 µM
[27] = second compound 0.3 µM, first compound 0.316 µM
[28] = second compound 0.3 µM, first compound 1 µM
[29] = second compound 0.3 µM, first compound 3.16 µM
[30] = second compound 0.3 µM, first compound 10 µM

| SMILES | pIC50 (second compound 0.003 µM) | pIC50 (second compound 0.00949 µM) | pIC50 (second compound 0.03 µM) | pIC50 (second compound 0.0949 µM) | pIC50 (second compound 0.3 µM) | viability, T/C [1] [%] | viability, T/C [2] [%] | viability, T/C [3] [%] | viability, T/C [4] [%] | viability, T/C [5] [%] | viability, T/C [6] [%] | viability, T/C [7] [%] | viability, T/C [8] [%] | viability, T/C [9] [%] | viability, T/C [10] [%] | viability, T/C [11] [%] | viability, T/C [12] [%] | viability, T/C [13] [%] | viability, T/C [14] [%] | viability, T/C [15] [%] | also measured |
| --- | --- | --- | --- | --- | --- | --- | --- | --- | --- | --- | --- | --- | --- | --- | --- | --- | --- | --- | --- | --- | --- |
| CC(C)n1c(=O)n(C)c2cnc3cc(F)c(-c4ccc(OCCCN5CCCCC5)nc4)cc3c21 + CC[C@@]1(O)C(=O)OCc2c1cc1n(c2=O)Cc2cc3c(CN(C)C)c(O)ccc3nc2-1 | > 7.50 | > 7.50 | > 7.50 | > 7.50 | > 7.50 | 48 | 45.2 | 51.9 | 40.6 | 14 | 10.2 | 15 | 14.7 | 14.3 | 13 | 9.79 | 7.58 | 10.1 | 9.85 | 9.61 | viability, T/C [16]: 7.8%; viability, T/C [17]: 4.59%; viability, T/C [18]: 2.72%; viability, T/C [19]: 9.24%; viability, T/C [20]: 8.61%; viability, T/C [21]: 8.35%; viability, T/C [22]: 6.09%; viability, T/C [23]: 4.16%; viability, T/C [24]: 2.59%; viability, T/C [25]: 6.62%; viability, T/C [26]: 6.23%; viability, T/C [27]: 5.88%; viability, T/C [28]: 5.84%; viability, T/C [29]: 4.56%; viability, T/C [30]: 3.48% |
| CC1COCCN1c1cc(-c2ccnn2C)c2ccnc(-c3ccn[nH]3)c2n1 (stereo not given) + CC[C@@]1(O)C(=O)OCc2c1cc1n(c2=O)Cc2cc3c(CN(C)C)c(O)ccc3nc2-1 | > 7.50 | > 7.50 | > 7.50 | > 7.50 | > 7.50 | 6.17 | 4.36 | 2.62 | 1.92 | 1.88 | 2.35 | 4.45 | 3.49 | 2.45 | 1.99 | 1.87 | 2.14 | 3.87 | 3.3 | 2.51 | viability, T/C [16]: 1.83%; viability, T/C [17]: 1.68%; viability, T/C [18]: 2.01%; viability, T/C [19]: 3.97%; viability, T/C [20]: 3.08%; viability, T/C [21]: 2.54%; viability, T/C [22]: 1.86%; viability, T/C [23]: 1.59%; viability, T/C [24]: 1.83%; viability, T/C [25]: 3.93%; viability, T/C [26]: 3.43%; viability, T/C [27]: 2.61%; viability, T/C [28]: 1.6%; viability, T/C [29]: 1.43%; viability, T/C [30]: 1.82% |
